According to US20240252594A1, “COMBINATION THERAPY FOR NEURODEGENERATIVE DISEASES” (ALETA NEUROSCIENCE, LLC, priority 2021, published 2024):

Legend:
[1] = tested on: human dopaminergic neurons (iCell DopaNeurons); experiment: MPP+-induced neurotoxicity: neurite outgrowth (neurite length, branch points) on iCell DopaNeurons; format: cell-based; details: for Neurite length, Mean: Table 7.1, plate 1
Source text: MPP+(1-methyl-4-phenylpyridinium) is a known neurotoxin which acts by interfering with oxidative phosphorylation in mitochondria by inhibiting complex I, a protein in the membrane of mitochondria in dopaminergic neurons in the substantia nigra.(94) The inhibition of mitochondrial function leads to the depletion of ATP and eventual cell death. MPP+ ultimately causes Parkinsonism in primates by killing certain dopamine-producing neurons in the substantia nigra.
iCell DOPA neurons are neural floor plate-derived midbrain dopaminergic neurons generated from human induced pluripotent stem cells (iPSCs). Dopaminergic neurons, specifically those located in the floor plate-derived midbrain are implicated in neurological disorders such as Parkinson's disease, MSA and DLBD among others. […] The iCellDopa neurons were supplied from FUJIFILM Cellular Dynamics.
(§1) Procedure. iCell DOPA neurons were thawed and cultured following the provider's instructions in Brainphys medium+provided supplements+1% N2 supplement (Stemcell Technologies)+penicillin/streptomycin+Laminin. They were plated at 20000 cells per well of a 384 well plate (pre-coated with poly-D-lysine and Laminin) in 70 μL of growth medium. Cells were incubated at 37° ° C./5% CO2 in a humidified cell culture incubator. Half of the culture medium was changed twice a week.
(§2) MPP+-induced neurotoxicity: 24 hours after neuronal plating, half of the medium was removed and the test compounds were applied with MPP+ treatment, both concentrated at 4×, were added to the wells. For each well, five aliquots were added, corresponding columns A-E in Table 3. In each row, either the compound indicated dissolved in its vehicle noted in Table 2 was added, or only a vehicle was added as indicated. Column E is an indicator of whether MPP+ was added. If not, only the medium was added.
(§3) For the evaluation of conditions 8, 10,12, 22, 24, Neurite outgrowth was followed for subsequent 48 hours using an Incucyte Zoom platform with one phase contrast image every 4 hours, using a 20× objective. After 48 hours, the medium containing test compounds and MPP+ was removed and replaced by fresh medium containing a fluorescent cytolysis marker (red fluorescence) and a live cell marker (green fluorescence). For the evaluation of conditions 10, 12, 24, 38, 40, 51-53, Neurite outgrowth was followed similarly for subsequent 72 hours after MPP+ was added.
Assay endpoints and data analysis. Phase contrast images were analyzed at each time point to determine the neurite length and number of branch points per mm^2. Kinetic data was plotted and kinetics were normalized by subtracting the value of the first data point (at time of treatment), allowing to measure changes in neurite outgrowth only from the onset of the treatment, starting at zero. Area Under Curve (AUC) of kinetic data was obtained and used for plotting compound's effects and perform statistical analyzes.

[2] = tested on: human dopaminergic neurons (iCell DopaNeurons); experiment: MPP+-induced neurotoxicity: cytolysis of iCell DopaNeurons; format: cell-based; details: with MPP+ 100 μM
Experimental: Three different measurements were made in the experiments. Neurite length in mm was measured, which is a measure of increase in dendril length of neurons. […] Secondly, neurite branching was measured. […] Thirdly, cytolysis of the cells was measured. […] Experimental conditions were measured relative to the results of healthy cells in the studies.
as §1, §2, §3
Data was normalized to control conditions as there is basal cytolysis in the cell culture after thawing.

[3] = tested on: IL-6 mediated inflammation in microglial cells; experiment: LPS/ATP-induced neuroinflammation in microglia: IL-6 secretion (Luminex); format: cell-based, human; details: for IL-6 in supernatant, Mean ± S.D. / IL-6 in supernatant, Replicate 1 / IL-6 in supernatant, Replicate 2 / IL-6 in supernatant, Replicate 3: LPS (100 ng/mL) + ATP (5 mM), six hours after LPS
Source text: (§4) In addition to the studies discussed above assessing activity of combinations of drugs on MPP+-induced neurodegeneration toxicity on human dopaminergic neurons as well as on a human iPSC cell line harboring a triplication mutation in alpha-synuclein gene, and measuring neuronal growth, neurite branching and neurofilament heavy chain, we also assessed combinations of drugs in reducing lipopolysaccharide (LPS, from E. coli)-induced neuroinflammation in human microglia cells.
(§5) Lipopolysaccharides are important outer membrane components of gram-negative bacteria such as E. coli and Salmonella. They are large amphipathic glycoconjugates that typically consist of a lipid domain (hydrophobic) attached to a core oligosaccharide and a distal polysaccharide. LPS binds to Toll-like receptor 4 (TLR4) and activates microglia(98) which in turn increases secretion of pro-inflammatory cytokines such as interleukin-6 (IL-6), tumor necrosis factor-α (TNF-α), and CXCL1/GROα.
(§6) Microglia cells were obtained from an iCell® Microglia kit, 01279 (Catalogue N^o R1131) from FUJIFILM Cellular Dynamics. We followed the manufacturer's protocol for activation of the microglial cells with LPS/ATP to subsequently measure the effect of the study drugs on pro-inflammatory cytokines IL-6, TNF-α and CXCL1/GROα.
(§7) All cell culture procedures were performed in aseptic conditions, under a laminar flow hood. Microglia were thawed and cultured following the provider's instructions. The microglia were plated at 50,000 cells per well of a Corning Primaria 96 well plate (Ref N^o 353872) in 100 μL of growth medium. Cells were incubated at 37° C./5% CO2 in a humidified cell culture incubator.
(§8) Three days after cell plating, the test or reference substances (25 μL of solutions at 5×) were applied 1 hour before LPS and ATP stimulation.
(§9) One hour later, 12.5 μL of test or reference substances were added again at 2× concentrated followed by 12.5 μL of LPS at 12× concentration. Fifty microliters of ATP were introduced at 4× concentration, 5 h 30 min after incubation with LPS.
(§10) Six hours after LPS incubation, the supernatant of each well was collected and centrifugated at 1000 g for 10 minutes to remove the cells and debris.
(§11) Fifty microliters of supernatant from NT and LPS+ATP-treated wells were used to determine cytokine secretion (IL-6, TNF-α, CXCL1/GROα) by Luminex platform according to the provider's instructions. Samples were diluted prior to the assay to fit within the standard range if needed. Three wells were tested per each condition (Table 11). Cytokines levels in the supernatant were expressed in pg/mL. The data was analyzed using a One-Way ANOVA followed by Bonferroni test.

HD patients = details: up to 15 g/day; cited from earlier work
G93A transgenic ALS mice = details: mouse, in vivo; cited from earlier work
[4] = tested on: iPSC-derived dopaminergic (DA) neurons harboring triplication of the α-synuclein locus; experiment: α-Synuclein triplication cell line: neurofilament heavy chain signal intensity; format: cell-based, human; details: normalized to Hoechst signal; three months treatment; PBA 500 μM, TUDCA 50 μM, EXD 100 nM
Experimental: We used 12 replicas for each experimental condition and 16 replicas for control (untreated cells). […] Cells were washed three times with warm phosphate buffered saline (PBS) and imaged immediately at 20× magnification on an imageXpress Micro confocal at 37° C. and 5% CO2.
Following imaging, cells were immediately fixed with 4% paraformaldehyde for 30 minutes at room temperature, washed three times with PBS, permeabilized with 0.2% Triton X-100 for 30 minutes, blocked with Odyssey Blocking Buffer for 60 minutes, and incubated overnight at 4° C. with primary antibodies, neurofilament (1:1000, Synaptic Systems 171 002) and LB509 (1:100, Abcam ab27766). Cells were washed 3× with 0.1% Tween-20 in PBS and incubated with Alexa Fluor Goat Anti-Rabbit 790 (1:1000) and Goat Anti-Mouse 647 (1:1000) for 1 hour at RT, before washing 3× with 0.1% Tween-20 in PBS and imaging with Sapphire Biomolecular Imager. Neurofilament heavy chain signal intensity was normalized to fixed Hoechst signal measured with Spectra Gemini plate reader (ex=350 nm, em=461 nm), using Hoechst 33342 nucleic acid stain from Invitrogen according to the manufacturer's instructions. Neurofilaments (NF) are located mostly in axons and indicate roughly the content of neurites. If neurodegeneration is halted or reversed, NF signal increases because it correlates with the number and/or length of neurites in the well.

[5] = tested on: TNF-α mediated neuroinflammation in microglial cells; experiment: LPS/ATP-induced neuroinflammation in microglia: TNF-α secretion (Luminex); format: cell-based, human; details: for TNF-α in supernatant, Mean ± S.D. / TNF-α in supernatant, Replicate 1 / TNF-α in supernatant, Replicate 2 / TNF-α in supernatant, Replicate 3: LPS (100 ng/mL) + ATP (5 mM), six hours after LPS
Source text: as §4, §5, §6, §7, §8, §9, §10, §11

[6] = tested on: CXCL1/GROα mediated neuroinflammation in microglial cells; experiment: LPS/ATP-induced neuroinflammation in microglia: CXCL1/GROα secretion (Luminex); format: cell-based, human; details: for CXCL1/GROα in supernatant, Mean ± S.D. / CXCL1/GROα in supernatant, Replicate 1 / CXCL1/GROα in supernatant, Replicate 2 / CXCL1/GROα in supernatant, Replicate 3: LPS (100 ng/mL) + ATP (5 mM), six hours after LPS
Source text: as §4, §5, §6, §7, §8, §9, §10, §11

IL-1B = experiment: LPS/ATP-induced neuroinflammation in microglia: IL-1B; format: cell-based, human; details: compared with […] distilled water in presence of LPS and ATP
Alzheimer's disease = details: cited from earlier work
[7] = Table 7.2, plate 1, with MPP+ 100 μM, 72 hours
[8] = compared with […] distilled water in presence of LPS and ATP

For `CC(C)[C@H](NC(=O)c1ccc2ccccc2n1)C(=O)N[C@@H](CC(=O)O)C(=O)COc1c(F)cccc1F` [PCI/MPP+, Q-VD-OPh], the “Neurite length, Mean” value ([1]; with MPP+ 100 μM, 72 hours) was 1301.0 mm/mm^2, the “Neurite Branching, Mean ± S.D.” value [1, 7] was 38456.3 ± 11570.7 per mm^2 and the “Neurite length, Mean ± S.D.” value ([1]; Table 8.1, plate 2, with MPP+ 100 μM, 72 hours) was 1430.1 ± 321.7 mm/mm^2. The “Neurite Branching, Mean ± S.D.” value ([1]; Table 8.2, plate 2, with MPP+ 100 μM, 72 hours) was 52610.1 ± 16660.1 per mm^2, the “Cytolysis, Mean ± S.D.” value ([2]; Table 9.1, plate 1) was 65.56 ± 1.89% and the “Cytolysis, Mean ± S.D.” value ([2]; Table 9.2, plate 2) was 67.93 ± 3.52%.

For `O=C([O-])CCCc1ccccc1.[Na+]` [PBA, Sodium 4-phenylbutyrate], the “IL-6 in supernatant, Mean ± S.D.” value [3] was 355.23 ± 45.97 pg/mL, the “IL-6 in supernatant, Replicate 1” value [3] was 396.23 pg/mL and the “IL-6 in supernatant, Replicate 2” value [3] was 363.94 pg/mL. The “IL-6 in supernatant, Replicate 3” value [3] was 305.53 pg/mL, the “Decrease of IL-6 concentration” value [3, 8] was 49% and the Safety and tolerability (HD patients) was “safe and well-tolerated”. The Survival (G93A transgenic ALS mice) was “significantly extended survival”, the “Neurofilament Heavy Chain signal intensity, mean” value [4] was 1.088 and the “Increase of number of branch points compared with MPP+ alone (control/MPP+)” value ([1]; AUC, MPP+ 100 μM) was 89%. The “Protective effect on neurite length and branching (in words)” value ([1]; MPP+ 100 μM) was “much less protective effect than combination 8”, the “Neurite length - Baseline-corrected AUC (0-72 h), Mean” value ([1]; Table 5.1, plate 1, with MPP+ 100 μM) was 853.7 mm/mm^2 and the “Number of branch points per mm^2 - Baseline-corrected AUC (0-72 h), Mean” value ([1]; Table 5.2, plate 1, with MPP+ 100 μM) was 41712.8 per mm^2. The “Neurite length, Mean” value ([1]; with MPP+ 100 μM, 72 hours) was 1681.1 mm/mm^2, the “Neurite Branching, Mean ± S.D.” value [1, 7] was 46742.8 ± 7107.5 per mm^2 and the “Cytolysis, Mean ± S.D.” value ([2]; Table 9.1, plate 1) was 72.06 ± 1.77%. The “TNF-α in supernatant, Mean ± S.D.” value [5] was 33.46 ± 1.75 pg/mL, the “TNF-α in supernatant, Replicate 1” value [5] was 32.67 pg/mL and the “TNF-α in supernatant, Replicate 2” value [5] was 35.47 pg/mL. For the same compound, the “TNF-α in supernatant, Replicate 3” value [5] was 32.24 pg/mL, the “Decrease of TNF-α concentration” value [5, 8] was 44% and the “CXCL1/GROα in supernatant, Mean ± S.D.” value [6] was 495.79 ± 122.99 pg/mL. For the same compound, the “CXCL1/GROα in supernatant, Replicate 1” value [6] was 627.29 pg/mL, the “CXCL1/GROα in supernatant, Replicate 2” value [6] was 383.60 pg/mL and the “CXCL1/GROα in supernatant, Replicate 3” value [6] was 476.49 pg/mL.

With `CCOC(=O)C1=CCCC[C@H]1S(=O)(=O)Nc1ccc(F)cc1Cl` [TAK-242] the “IL-6 in supernatant, Mean ± S.D.” value [3] was 10.47 ± 0.00 pg/mL, the “IL-6 in supernatant, Replicate 1” value [3] was less than 10.47 pg/mL and the “IL-6 in supernatant, Replicate 2” value [3] was less than 10.47 pg/mL. For the same compound, the “IL-6 in supernatant, Replicate 3” value [3] was less than 10.47 pg/mL, the “Effect on IL-6 concentration (in words)” value [3, 8] was “significantly decreased” and the “Effect on IL-1B concentration (in words)” value (IL-1B) was “significantly decreased”. The “TNF-α in supernatant, Mean ± S.D.” value [5] was 5.63 ± 0.00 pg/mL, the “TNF-α in supernatant, Replicate 1” value [5] was less than 5.63 pg/mL and the “TNF-α in supernatant, Replicate 2” value [5] was less than 5.63 pg/mL. The “TNF-α in supernatant, Replicate 3” value [5] was less than 5.63 pg/mL, the “Effect on TNF-α concentration (in words)” value [5, 8] was “significantly decreased” and the “CXCL1/GROα in supernatant, Mean ± S.D.” value [6] was 37.76 ± 6.05 pg/mL. The “CXCL1/GROα in supernatant, Replicate 1” value [6] was 35.76 pg/mL, the “CXCL1/GROα in supernatant, Replicate 2” value [6] was 32.96 pg/mL and the “CXCL1/GROα in supernatant, Replicate 3” value [6] was 44.55 pg/mL. The “Effect on GROα concentration (in words)” value [6, 8] was “significantly decreased”.

In the case of `Cc1cn(-c2cc(NC(=O)c3ccc(C)c(Nc4nccc(-c5cccnc5)n4)c3)cc(C(F)(F)F)c2)cn1` [nilotinib, Nilotinib], the “Hippocampal volume loss attenuated” value (Alzheimer's disease; at 12 months) is listed as −27% and the Safety (Alzheimer's disease; in vivo) is listed as “safe”.

With `CC(C)(O)c1coc(S(=O)(=O)NC(=O)Nc2c3c(cc4c2CCC4)CCC3)c1` [MCC950] the “IL-6 in supernatant, Mean ± S.D.” value [3] was 256.48 ± 40.04 pg/mL, the “IL-6 in supernatant, Replicate 1” value [3] was 253.54 pg/mL and the “IL-6 in supernatant, Replicate 2” value [3] was 297.91 pg/mL. The “IL-6 in supernatant, Replicate 3” value [3] was 218.00 pg/mL, the “Effect on IL-6 concentration (in words)” value [3, 8] was “significantly decreased” and the “Effect on IL-1B concentration (in words)” value (IL-1B) was “significantly decreased”. The “TNF-α in supernatant, Mean ± S.D.” value [5] was 30.95 ± 2.25 pg/mL, the “TNF-α in supernatant, Replicate 1” value [5] was 29.44 pg/mL and the “TNF-α in supernatant, Replicate 2” value [5] was 29.87 pg/mL. For the same compound, the “TNF-α in supernatant, Replicate 3” value [5] was 33.53 pg/mL, the “Effect on TNF-α concentration (in words)” value [5, 8] was “significantly decreased” and the “CXCL1/GROα in supernatant, Mean ± S.D.” value [6] was 469.39 ± 82.91 pg/mL. The “CXCL1/GROα in supernatant, Replicate 1” value [6] was 375.70 pg/mL, the “CXCL1/GROα in supernatant, Replicate 2” value [6] was 499.15 pg/mL and the “CXCL1/GROα in supernatant, Replicate 3” value [6] was 533.31 pg/mL.
